# Assay results: ChEMBL document CHEMBL1151896, “3D QSAR of novel estrogen-RGD peptide conjugates: getting insight into structural dependence of anti-osteoporosis activity and side effect of estrogen in ERT” (Bioorg Med Chem, 2009)
# Peptide text beside a SMILES is read from it. * marks the point of attachment. Succinyl(O17-estradiol) = C[C@]12CC[C@@H]3c4ccc(O)cc4CC[C@H]3[C@@H]1CC[C@@H]2OC(=O)CCC(=O)*; Acetyl(estradiol-3-yloxy) = C[C@]12CC[C@@H]3c4ccc(OCC(=O)*)cc4CC[C@H]3[C@@H]1CC[C@@H]2O; X1 = C[C@]12CC[C@@H]3c4ccc(OCC(=O)*)cc4CC[C@H]3[C@@H]1CCC2=O
# Legend:
# [1] = system: Mus musculus; assay: Antiosteoporosis activity against ovariectomized ICR mouse assessed as serum calcium level at 110.3 nmol/kg, po after 30 mins; format: functional
# [2] = system: Mus musculus; assay: Antiosteoporosis activity against ovariectomized ICR mouse assessed as serum ALP activity at 110.3 nmol/kg, po after 30 mins; format: functional
# [3] = system: Mus musculus; assay: Antiosteoporosis activity against ovariectomized ICR mouse assessed as femur ash weight at 110.3 nmol/kg, po after 30 mins; format: functional
# [4] = system: Mus musculus; assay: Antiosteoporosis activity against ovariectomized ICR mouse assessed as femur length at 110.3 nmol/kg, po after 30 mins; format: functional
# [5] = system: Mus musculus; assay: Antiosteoporosis activity against ovariectomized ICR mouse assessed as mineral content at 110.3 nmol/kg, po after 30 mins; format: functional
# [6] = system: Mus musculus; assay: Toxicity in ovariectomized ICR mouse assessed as tail bleeding time at 110.3 nmol/kg, po for 30 mins; format: organism-based; conditions: in vivo, 0.5 h
# [7] = system: Mus musculus; assay: Toxicity in ovariectomized ICR mouse assessed as tail bleeding time at 110.3 nmol/kg, po for 90 mins; format: organism-based; conditions: in vivo, 1.5 h
# [8] = system: Mus musculus; assay: Toxicity in ovariectomized ICR mouse assessed as change in uterine weight at 110.3 nmol/kg, po after 4 weeks; format: organism-based; conditions: in vivo, 672 h
# [9] = system: Mus musculus; assay: Antiosteoporosis activity against ovariectomized ICR mouse assessed as serum phosphorous level at 110.3 nmol/kg, po after 30 mins; format: functional
# [10] = system: Mus musculus; assay: Antiosteoporosis activity against ovariectomized ICR mouse assessed as dry femur weight at 110.3 nmol/kg, po after 30 mins; format: functional
# [11] = system: Mus musculus; assay: Antiosteoporosis activity against ovariectomized ICR mouse assessed as femur calcium content at 110.3 nmol/kg, po after 30 mins; format: functional
# [12] = system: Mus musculus; assay: Antiosteoporosis activity against ovariectomized ICR mouse assessed as femur phosphorous content at 110.3 nmol/kg, po after 30 mins; format: functional
# [13] = system: Mus musculus; assay: Toxicity in ovariectomized ICR mouse assessed as effect on spleen weight at 110.3 nmol/kg, po after 4 weeks; format: organism-based; conditions: in vivo, 672 h
# [14] = system: Mus musculus; assay: Toxicity in ovariectomized ICR mouse assessed as effect on lung weight at 110.3 nmol/kg, po after 4 weeks; format: organism-based; conditions: in vivo, 672 h
# [15] = system: Mus musculus; assay: Toxicity in ovariectomized ICR mouse assessed as effect on kidney weight at 110.3 nmol/kg, po after 4 weeks; format: organism-based; conditions: in vivo, 672 h
# [16] = system: Mus musculus; assay: Toxicity in ovariectomized ICR mouse assessed as effect on liver weight at 110.3 nmol/kg, po after 4 weeks; format: organism-based; conditions: in vivo, 672 h
# [17] = system: Mus musculus; assay: Toxicity in ovariectomized ICR mouse assessed as effect on body weight at 110.3 nmol/kg, po after 4 weeks; format: organism-based; conditions: in vivo, 672 h
SMILES,Activity [1] [mM],Activity [2] [U/L],Activity [3] [mg],Activity [4] [cm],Activity [5] [%],Activity [6] [s],Activity [7] [s],Activity [8] [g],Activity [9] [mM],Activity [10] [mg],Activity [11] [%],Activity [12] [%],Activity [13],Activity [14],Activity [15],Activity [16],Activity [17]
C[C@]12CC[C@@H]3c4ccc(OCC(=O)N[C@@H](CCCNC(=N)N)C(=O)NCC(=O)N[C@@H](CC(=O)O)C(=O)N[C@@H](Cc5ccccc5)C(=O)O)cc4CC[C@H]3[C@@H]1CC[C@@H]2O ({Acetyl(estradiol-3-yloxy)}-RGDF-OH),3.34,25.42,33.99,1.67,0.6,557,560,0.067,,,,,,,,,
CC(C)[C@H](NC(=O)[C@H](CC(=O)O)NC(=O)CNC(=O)[C@H](CCCNC(=N)N)NC(=O)COc1ccc2c(c1)CC[C@@H]1[C@@H]2CC[C@]2(C)C(=O)CC[C@@H]12)C(=O)O (X1-RGDV-OH),3.33,17.42,33.99,1.66,0.61,563,571,0.066,2.96,54.12,57.24,20.08,,,,,
C[C@]12CC[C@@H]3c4ccc(OCC(=O)N[C@@H](CCCNC(=N)N)C(=O)NCC(=O)N[C@@H](CC(=O)O)C(=O)N[C@@H](CO)C(=O)O)cc4CC[C@H]3[C@@H]1CC[C@@H]2O ({Acetyl(estradiol-3-yloxy)}-RGDS-OH),3.33,26.62,,1.65,0.6,582,577,0.064,,,,,,,,,
C[C@]12CC[C@@H]3c4ccc(O)cc4CC[C@H]3[C@@H]1CCC2=O [ESTRONE],3.35,27.97,32.08,1.65,0.61,411,433,0.114,3.13,53.03,56.2,19.11,,,,,
C[C@]12CC[C@@H]3c4ccc(OCC(=O)N[C@@H](CCCNC(=N)N)C(=O)NCC(=O)N[C@@H](CC(=O)O)C(=O)N[C@@H](CO)C(=O)O)cc4CC[C@H]3[C@@H]1CCC2=O (X1-RGDS-OH),3.33,16.62,34.38,1.65,0.6,579,568,0.069,2.98,54.29,57.76,20.44,,,,,
C[C@]12CC[C@@H]3c4ccc(OCC(=O)N[C@@H](CCCNC(=N)N)C(=O)NCC(=O)N[C@@H](CC(=O)O)C(=O)N[C@@H](CO)C(=O)N[C@@H](CCCNC(=N)N)C(=O)NCC(=O)N[C@@H](CC(=O)O)C(=O)N[C@@H](CO)C(=O)O)cc4CC[C@H]3[C@@H]1CCC2=O (X1-RGDSRGDS-OH),3.08,13.8,35.78,1.67,0.62,588,516,0.058,2.96,55.9,59.95,21.76,Non-toxic,Non-toxic,Non-toxic,Non-toxic,Non-toxic
CC(C)[C@H](NC(=O)[C@H](CC(=O)O)NC(=O)CNC(=O)[C@H](CCCNC(=N)N)NC(=O)COc1ccc2c(c1)CC[C@@H]1[C@@H]2CC[C@]2(C)[C@@H](O)CC[C@@H]12)C(=O)O ({Acetyl(estradiol-3-yloxy)}-RGDV-OH),3.32,26.01,34.29,,0.61,569,577,0.064,,,,,,,,,
C[C@]12CC[C@@H]3c4ccc(O)cc4CC[C@H]3[C@@H]1CC[C@@H]2OC(=O)CCC(=O)N[C@@H](CCCNC(=N)N)C(=O)NCC(=O)N[C@@H](CC(=O)O)C(=O)N[C@@H](CO)C(=O)O ({Succinyl(O17-estradiol)}-RGDS-OH),3.35,23.93,,1.66,0.6,575,561,0.063,,53.98,59.14,,,,,,
C[C@]12CC[C@@H]3c4ccc(O)cc4CC[C@H]3[C@@H]1CC[C@@H]2OC(=O)CCC(=O)N[C@@H](CCCNC(=N)N)C(=O)NCC(=O)N[C@@H](CC(=O)O)C(=O)N[C@@H](Cc1ccccc1)C(=O)O ({Succinyl(O17-estradiol)}-RGDF-OH),3.34,23.18,34.87,,0.61,576,568,0.06,,,58.06,,,,,,
C[C@]12CC[C@@H]3c4ccc(O)cc4CC[C@H]3[C@@H]1CC[C@@H]2O [ESTRADIOL],3.34,27.22,,1.64,0.61,417,441,0.108,,,,,,,,,
CC(C)[C@H](NC(=O)[C@H](CC(=O)O)NC(=O)CNC(=O)[C@H](CCCNC(=N)N)NC(=O)CCC(=O)O[C@H]1CC[C@H]2[C@@H]3CCc4cc(O)ccc4[C@H]3CC[C@]12C)C(=O)O ({Succinyl(O17-estradiol)}-RGDV-OH),3.36,22.96,34.7,1.67,0.61,551,560,0.064,,,,,,,,,
C[C@]12CC[C@@H]3c4ccc(OCC(=O)N[C@@H](CCCNC(=N)N)C(=O)NCC(=O)N[C@@H](CC(=O)O)C(=O)N[C@@H](Cc5ccccc5)C(=O)O)cc4CC[C@H]3[C@@H]1CCC2=O (X1-RGDF-OH),3.44,16.42,33.85,1.65,0.59,581,576,0.06,3.17,53.99,56.96,20.32,,,,,
